The values that follow come from DBAASP.

What all share (test): ≥ marks a high value that may be exact or a test limit, other limits are often not marked, values filed in µg/mL are converted to µM
For assay [1], the system named is Aspergillus fumigatus.
The test system of assay [2] is Pseudomonas syringae pv. syringae DSM 10604.
For assay [3], the system named is Clavibacter michiganensis subsp. michiganensis DSM 46294.
Assay [4] relates to Pectobacterium carotovorum subsp. carotovorum DSM 30168.
Assay [5] relates to Staphylococcus aureus 90857.
In assay [6] the test system is Pseudomonas syringae pv. tomato DC3000.
The subject of assay [7] is Pseudomonas corrugata DSM 7228.
In assay [8] the test system is Xanthomonas vesicatoria DSM 50861.
For assay [9], the system named is Pseudomonas aeruginosa Ps4.
Assay [10] concerns Staphylococcus aureus ATCC 6538P.
In assay [11] the test system is Staphylococcus aureus.
Assay [12] has as its system Escherichia coli JM109.
The subject of assay [13] is Escherichia coli JW0013.

Values after ≈ are worked out from the molar mass of the structure shown.

A word on the MIC: it is the lowest concentration that inhibits growth of the organism. Read a low MIC as a more susceptible organism. `CC(C)[C@H](NC(=O)[C@@H](N)CCCCN)C(=O)N[C@@H](C)C(=O)N[C@@H](CCCCN)C(=O)N[C@@H](CCC(N)=O)C(=O)N[C@@H](CCC(=O)O)C(=O)N[C@@H](CCCCN)C(=O)N[C@@H](CCCCN)C(=O)N[C@@H](CCCCN)C(=O)N[C@@H](CCCCN)C(=O)N[C@@H](CCCCN)C(=O)N[C@H](C(=O)NCC(=O)N[C@@H](CCCN=C(N)N)C(=O)N[C@@H](C)C(=O)N[C@@H](CCCCN)C(=O)N[C@@H](CCCN=C(N)N)C(=O)N[C@@H](CCCN=C(N)N)C(=O)O)[C@@H](C)O` [KVAKQEKKKKKTGRAKRR]: the MIC in assay [1] amounted to 18 µM (≈ 39 µg/mL).
Regarding `CC[C@H](C)[C@H](NC(=O)[C@H](CCCN=C(N)N)NC(=O)[C@H](CCCN=C(N)N)NC(=O)[C@H](CC(C)C)NC(=O)[C@H](Cc1ccccc1)NC(=O)[C@H](CCCN=C(N)N)NC(=O)[C@@H](N)CC(C)C)C(=O)N[C@@H](CC(C)C)C(=O)N[C@@H](CCCN=C(N)N)C(=O)N[C@@H](CCCN=C(N)N)C(=O)N[C@@H](CC(C)C)C(=O)N[C@@H](CC(C)C)C(N)=O` [LRFLRRILRRLL], the MIC in assay [2] was determined as 0.308 µM (≈ 0.5 µg/mL); in assay [3], 0.308 µM (≈ 0.5 µg/mL); in [4] it was 1.54 µM (≈ 2.5 µg/mL); in assay [5] it was 0.625 µM (≈ 1.02 µg/mL); in assay [6], 0.615 µM (≈ 0.999 µg/mL); in assay [7], 0.308 µM (≈ 0.5 µg/mL). The MIC in assay [8] was determined as 0.308 µM (≈ 0.5 µg/mL).
Molecule `CC(C)[C@H](NC(=O)[C@H](CCCCN)NC(=O)[C@H](CCCN=C(N)N)NC(=O)[C@H](Cc1ccccc1)NC(=O)[C@H](CC(N)=O)NC(=O)[C@H](CCCN=C(N)N)NC(=O)[C@H](CCC(N)=O)NC(=O)[C@H](Cc1c[nH]c2ccccc12)NC(=O)[C@@H](N)Cc1ccccc1)C(=O)N[C@@H](CCCN=C(N)N)C(N)=O` [FWQRNFRKVR] registered an MIC in assay [9] of no less than 174 µM.
On the same count and under the same terms, next, `NC(=O)C[C@H](NC(=O)[C@H](CCCN=C(N)N)NC(=O)[C@H](CCCN=C(N)N)NC(=O)[C@H](Cc1c[nH]c2ccccc12)NC(=O)[C@@H](N)Cc1ccccc1)C(=O)N[C@@H](Cc1ccccc1)C(=O)N[C@@H](Cc1c[nH]c2ccccc12)C(=O)N[C@@H](CCCN=C(N)N)C(=O)N[C@@H](CCCN=C(N)N)C(N)=O` [FWRRNFWRR]: no less than 176 µM; `CC[C@H](C)[C@H](NC(=O)[C@H](CC(N)=O)NC(=O)[C@H](CCCN=C(N)N)NC(=O)[C@H](CCC(N)=O)NC(=O)[C@H](Cc1c[nH]c2ccccc12)NC(=O)[C@@H](N)Cc1ccccc1)C(=O)N[C@@H](CCCN=C(N)N)C(=O)N[C@@H](CCCCN)C(=O)N[C@@H](Cc1ccccc1)C(=O)N[C@@H](CCCN=C(N)N)C(N)=O` [FWQRNIRKFR]: no less than 172 µM.
Take `CC[C@H](C)[C@H](NC(=O)[C@H](C)NC(=O)[C@H](CC(C)C)NC(=O)[C@H](CS)NC(=O)[C@H](Cc1cnc[nH]1)NC(=O)[C@H](C)NC(=O)[C@H](C)NC(=O)[C@H](CS)NC(=O)[C@@H](N)CC(C)C)C(=O)N[C@@H](CCCN=C(N)N)C(=O)N[C@@H](CCCN=C(N)N)C(=O)N[C@@H](CCCN=C(N)N)C(N)=O` [LCAAHCLAIRRR]: the figures for the MIC in assay [10], in assay [11] and in assay [12] were 5.42 µM, greater than 46.3 µM and 17.4 µM, respectively.
For `CC[C@H](C)[C@H](NC(=O)[C@H](C)NC(=O)[C@H](CC(C)C)NC(=O)[C@H](CCCN=C(N)N)NC(=O)[C@H](CC(C)C)NC(=O)[C@@H](NC(=O)[C@H](CCCN=C(N)N)NC(=O)[C@H](CC(C)C)NC(=O)[C@@H](NC(=O)[C@H](CC(C)C)NC(=O)[C@H](CCCN=C(N)N)NC(=O)[C@H](CCCN=C(N)N)NC(=O)[C@@H](N)CCCCN)[C@@H](C)CC)[C@@H](C)CC)C(=O)N[C@@H](CCCN=C(N)N)C(=O)N[C@@H](C)C(=O)N[C@@H](CC(C)C)C(=O)N[C@H](C(=O)N[C@@H](CCCCN)C(=O)N[C@@H](CCCCN)C(=O)N[C@@H](CCCN=C(N)N)C(N)=O)C(C)C` [KRRLILRILRLAIRALVKKR], the MIC in assay [2] was 2.01 µM (≈ 5 µg/mL); in [3] it was 0.101 µM (≈ 0.25 µg/mL); in [4], 4.02 µM (≈ 10 µg/mL); in [5], 4 µM (≈ 9.94 µg/mL); in [6], 4.02 µM (≈ 10 µg/mL); in [7], 2.01 µM (≈ 5 µg/mL). In addition, the MIC in assay [8] amounted to 0.101 µM (≈ 0.25 µg/mL).
Consider `CC(C)C[C@H](NC(=O)[C@H](Cc1ccccc1)NC(=O)[C@H](CC(C)C)NC(=O)[C@H](CCCN=C(N)N)NC(=O)[C@H](CC(C)C)NC(=O)[C@H](Cc1ccccc1)NC(=O)[C@H](CC(C)C)NC(=O)[C@H](CCCN=C(N)N)NC(=O)[C@H](Cc1ccccc1)NC(=O)[C@H](CC(C)C)NC(=O)[C@H](CCCN=C(N)N)NC(=O)[C@H](Cc1ccccc1)NC(=O)[C@H](CC(C)C)NC(=O)[C@H](Cc1ccccc1)NC(=O)[C@H](CC(C)C)NC(=O)[C@H](CCCN=C(N)N)NC(=O)[C@H](CCCN=C(N)N)NC(=O)[C@@H](N)CCCCN)C(=O)N[C@@H](CCCCN)C(=O)N[C@@H](CCCCN)C(N)=O` [KRRLFLFRLFRLFLRLFLKK], for which the MIC stood at 3.69 µM (≈ 10 µg/mL) in [2]; 0.922 µM (≈ 2.5 µg/mL) in assay [3]; 3.69 µM (≈ 10 µg/mL) in [4]; 4 µM (≈ 10.8 µg/mL) in assay [5]; 1.84 µM (≈ 5 µg/mL) in assay [6]; 3.69 µM (≈ 10 µg/mL) in assay [7]. Besides, in [8], the MIC came out at 0.922 µM (≈ 2.5 µg/mL).
In the case of `CC[C@H](C)[C@H](NC(=O)[C@H](CC(N)=O)NC(=O)[C@H](CCCN=C(N)N)NC(=O)[C@H](CCC(N)=O)NC(=O)[C@H](Cc1c[nH]c2ccccc12)NC(=O)[C@@H](N)Cc1ccccc1)C(=O)N[C@@H](CCCN=C(N)N)C(=O)N[C@@H](CCCCN)C(=O)N[C@H](C(=O)N[C@@H](CCCCN)C(=O)N[C@@H](CCCCN)C(=O)N[C@@H](CCCCN)C(=O)N[C@@H](CCCCN)C(N)=O)C(C)C` [FWQRNIRKVKKKK], in [9], the MIC was no less than 142 µM.
Same read-out and setting: with `NC(=O)[C@H](CCCN=C(N)N)NC(=O)[C@H](Cc1c[nH]c2ccccc12)NC(=O)[C@H](CCCN=C(N)N)NC(=O)[C@H](Cc1c[nH]c2ccccc12)NC(=O)[C@H](CCCN=C(N)N)NC(=O)[C@H](Cc1c[nH]c2ccccc12)NC(=O)[C@@H](N)Cc1ccccc1` [FWRWRWR] the figure was no less than 52.4 µM.
In assay [13], `CC[C@H](C)[C@H](NC(=O)[C@H](CCCN=C(N)N)NC(=O)[C@H](CCCN=C(N)N)NC(=O)[C@@H]1CCCN1C(=O)[C@@H]1CCCN1C(=O)[C@H](CCCN=C(N)N)NC(=O)[C@@H](NC(=O)[C@H](CCCN=C(N)N)NC(=O)[C@@H]1CCCN1C(=O)[C@H](CC(C)C)NC(=O)[C@H](Cc1ccc(O)cc1)NC(=O)[C@@H]1CCCN1C(=O)[C@@H]1CCCN1C(=O)[C@H](CCCCN)NC(=O)[C@H](CC(=O)O)NC(=O)[C@@H](N)C(C)C)[C@@H](C)CC)C(=O)N[C@@H](Cc1ccc(O)cc1)C(=O)N[C@@H](CC(N)=O)C(=O)N[C@@H](CCCN=C(N)N)C(N)=O` [VDKPPYLPRIRPPRRIYNR] displayed an MIC of 1.37 µM (≈ 3.3 µg/mL).
In [9], `CC[C@H](C)[C@H](NC(=O)[C@H](CC(N)=O)NC(=O)[C@H](CCCN=C(N)N)NC(=O)[C@H](CCC(N)=O)NC(=O)[C@H](Cc1c[nH]c2ccccc12)NC(=O)[C@@H](N)Cc1ccccc1)C(=O)N[C@@H](CCCCN)C(=O)N[C@H](C(=O)N[C@@H](CCCN=C(N)N)C(N)=O)C(C)C` [FWQRNIKVR] yielded an MIC of no less than 201 µM.
On to `CC[C@H](C)[C@H](NC(=O)[C@H](CCCN=C(N)N)NC(=O)[C@H](CCCN=C(N)N)NC(=O)[C@@H]1CCCN1C(=O)[C@@H]1CCCN1C(=O)[C@H](CCCN=C(N)N)NC(=O)[C@@H]1CCCN1C(=O)[C@H](CCCN=C(N)N)NC(=O)[C@@H]1CCCN1C(=O)[C@H](CC(C)C)NC(=O)[C@H](Cc1ccc(O)cc1)NC(=O)[C@@H]1CCCN1C(=O)[C@@H]1CCCN1C(=O)[C@H](CCCCN)NC(=O)[C@H](CC(=O)O)NC(=O)[C@@H](N)Cc1c[nH]c2ccccc12)C(=O)N[C@@H](Cc1ccc(O)cc1)C(=O)N[C@@H](CC(N)=O)C(=O)N[C@@H](CCCN=C(N)N)C(N)=O` [WDKPPYLPRPRPPRRIYNR], for which, in assay [13], the MIC worked out at 1.94 µM (≈ 4.8 µg/mL).
Take `CC(C)C[C@H](NC(=O)[C@H](CCCN=C(N)N)NC(=O)[C@H](CCCCN)NC(=O)[C@H](CCCCN)NC(=O)[C@@H](N)CCCN=C(N)N)C(=O)N[C@@H](CCCCN)C(=O)N[C@H](C(=O)N[C@H](C(=O)N[C@@H](CCCCN)C(=O)N[C@@H](CCCN=C(N)N)C(=O)N[C@@H](CC(C)C)C(=O)N[C@H](C(N)=O)C(C)C)C(C)C)C(C)C` [RKKRLKVVKRLV]: the MIC is 3.28 µM (≈ 5 µg/mL) in assay [2]; 6.57 µM (≈ 9.99 µg/mL) in [3]; 6.57 µM (≈ 9.99 µg/mL) in assay [4]; no less than 62.5 µM in [5]; 1.64 µM (≈ 2.5 µg/mL) in [6]; 6.57 µM (≈ 9.99 µg/mL) in assay [7]. In [8], the MIC was 6.57 µM (≈ 9.99 µg/mL).
